Measurements reported in patent publication US9482666B2, “High throughput selection of specific cell binding and lytic polypeptides” (priority 2011, dated 2016).

Key:
Assay in all cases: Functional assay on peptide microarray (CTO/AF555 profile)
E. coli O111:B4 = type: cell-based, Escherichia coli O111:B4; details: EC; CTO and AF555 labeled cells
Text: (§1) In order to make our technology more informative, we have developed a procedure for distinguishing those classes of peptides directly on the microarray (see FIG. 1c). Using the intracellular stain CTO we detected the first class (peptide-binders) and the third class (no activity). We decided to involve additional reference dye “Alexa Fluor-555” with an NHS ester active group that attack free amines present in membrane-bound proteins. It was expected, and subsequently shown, that peptide-binders should have signals dominated by both dyes on parallel arrays (profile CTO+AF+). In the case of peptides with killing activity, CTO should leak out of cells once the membrane is disrupted (profile CTO−AF+).
(§2) Before probing, the slides were treated with 90% TFA (trifluor-acetic acid) to get rid of non-immobilized peptides, blocking groups and probable organic impurities followed by DMF, ethanol and deionized water washing. […]
(§3) Turbidity of overnight cultures was measured at OD600. The CFU/ml value was calculated according to McFarland turbidity standard. […]
(§4) Microarrays were scanned by using a Perkin-Elmer ProScanArray HT Microarray Scanner with the 488, 543 and 633 nm excitation lasers at 100% power and 70% photomultiplier tube gain. […] All scanned images were analyzed by using GenePix Pro 6.0 software (Axon Instruments, Union City, Calif., USA). […]

P. aeruginosa PAO-1 = type: cell-based, Pseudomonas aeruginosa; details: PA; CTO and AF555 labeled cells
Text: as §1, §2, §3, §4

S. aureus UAB637 = type: cell-based, Staphylococcus aureus; details: SA; CTO and AF555 labeled cells
Text: as §1, §2, §3, §4

S. mutans UAB147 = type: cell-based, Streptococcus mutans; details: SM; CTO and AF555 labeled cells
Text: as §1, §2, §3, §4

B. subtilis = type: cell-based, Bacillus subtilis; details: BS; CTO and AF555 labeled cells
Text: as §1, §2, §3, §4

Row | Sequence | microarray profile (lytic / binder / no profile) (E. coli O111:B4) | microarray profile (lytic / binder / no profile) (P. aeruginosa PAO-1) | microarray profile (lytic / binder / no profile) (S. aureus UAB637) | microarray profile (lytic / binder / no profile) (S. mutans UAB147) | microarray profile (lytic / binder / no profile) (B. subtilis)
1 | DRIFHKMQHKPYKIKKRGSC | binder | lytic | binder | lytic | no profile
2 | RWRRHKHFKRPHRKHKRGSC | no profile | lytic | lytic | lytic | lytic
